Patent EP2647626A1, “1-Aza-spiro[4.5]dec-3-ene and 1,8-diaza-spiro[4.5]dec-3-ene derivatives as pesticides” (Syngenta Participations AG, priority 2012, dated 2013)
Like-named read-outs stand apart in the source and are kept apart here.

Experiments:
Type in all cases: in vivo
[1] = test system: Myzus persicae (green peach aphid); experiment: Activity against Myzus persicae, mixed population, feeding/residual contact activity on sprayed cabbage plants; settings: 144 h, read-out: activity against Myzus persicae
Protocol: (§1) (mixed population, feeding/residual contact activity, plant damage evaluation)
(§2) Cabbage plants infested with a mixed population of Myzus persicae were treated with diluted test solutions of the compounds in a spray chamber. 6 days after treatment, samples were checked for mortality and for plant damage (phytotoxicity), visual assessment being made using a 0-100% rating scale (100% = total damage to plant; 0% = no damage to plant).

[2] = test system: Myzus persicae (green peach aphid); experiment: Activity against Myzus persicae, mixed population, systemic/feeding activity, curative (pea seedling roots in test solution); settings: 144 h, read-out: activity
Source text: Example B2: Activity against Myzus persicae (green peach aphid) (mixed population, systemic/feeding activity, curative)
Roots of pea seedlings, infested with an aphid population of mixed ages, were placed directly in the test solutions. 6 days after introduction, samples were checked for mortality and special effects on the plant.

[3] = test system: Tetranychus urticae (two-spotted spider mite); experiment: Activity against Tetranychus urticae, mixed population, feeding/residual contact activity, preventive (bean leaf discs); settings: foliar, 192 h, concentration of 400ppm, egg, larval and adult mortality checked 8 days later, bean leaf discs sprayed
Source text: Example B4: Activity against Tetranychus urticae (two-spotted spider mite)
(mixed population, feeding/residual contact activity, preventive)
Bean leaf discs on agar in 24-well microtiter plates were sprayed with test solutions. After drying, the leaf discs were infested with mite populations of mixed ages. 8 days later, discs were checked for egg mortality, larval mortality, and adult mortality.

cabbage plants = experiment: Plant damage evaluation (phytotoxicity) on sprayed cabbage plants, visual 0-100% rating scale; settings: concentration of 200ppm; 6 days after treatment; 100% = total damage to plant, 0% = no damage to plant
Protocol: Example B5: Activity against Myzus persicae (green peach aphid)
as §1, §2

[4] = test system: Myzus persicae (green peach aphid); experiment: Activity against Myzus persicae, mixed population, feeding/residual contact activity, preventive (sunflower leaf discs); settings: foliar, 144 h, read-out: activity
Protocol: Example B1: Activity against Myzus persicae (green peach aphid) (mixed population, feeding/residual contact activity, preventive)
Sunflower leaf discs were placed on agar in a 24-well microtiter plate and sprayed with test solutions. After drying, the leaf discs were infested with an aphid population of mixed ages. After an incubation period of 6 days, samples were checked for mortality and special effects (e.g. phytotoxicity).

[5] = concentration of 200ppm, mortality 6 days after treatment, cabbage plants, spray chamber
[6] = concentration of 400ppm, mortality checked 6 days after introduction, roots of pea seedlings in test solution
[7] = concentration of 400ppm, mortality checked after 6 days, sunflower leaf discs sprayed

## CO[C@H]1CC[C@@]2(CC1)C(=O)C(c1cc(C)ccc1C)C(=O)N2c1ccccc1 (relative stereo) [P2.1, cis-3-(2,5-dimethyl-phenyl)-8-methoxy-1-phenyl-1-aza-spiro[4.5]decane-2,4-dione]
[1]; [5]
  mortality at 200 ppm: ≥ 80%

## CCOC(=O)OC1=C(c2cc(C)ccc2C)C(=O)N(c2ccccc2)[C@]12CC[C@@H](OC)CC2 [P1.1, carbonic acid cis-3-(2,5-dimethyl-phenyl)-8-methoxy-2-oxo-1-phenyl-1-aza-spiro[4.5]dec-3-en-4-yl ester ethyl ester]
[1]; [5]
  mortality at 200 ppm: ≥ 80%

## CCOC(=O)OC1=C(c2cc(C)ccc2C)C(=O)N(c2ccccc2)C12CCN(OC)CC2 [P1.2]
[2]; [6]
  mortality at 400 ppm: > 80%
[3]
  mortality at 400 ppm: > 80%
[1]
  mortality at 200 ppm: ≥ 80%
Cabbage plants
  damage to cabbage plants: ≤ 10%

## CCOC(=O)OC1=C(c2c(C)cc(Br)cc2C)C(=O)N(c2ccccc2)C12CCN(OC)CC2 [P1.3]
[4]; [7]
  mortality at 400 ppm: > 80%
[2]; [6]
  mortality at 400 ppm: > 80%
[3]
  mortality at 400 ppm: > 80%
[1]
  mortality at 200 ppm: ≥ 80%
Cabbage plants
  damage to cabbage plants: ≤ 10%

## CCOC(=O)OC1=C(c2c(C)cc(C)cc2C)C(=O)N(c2ccccc2)C12CCN(OC)CC2 [P1.4]
[2]; [6]
  mortality at 400 ppm: > 80%

## CCOC(=O)OC1=C(c2c(C)cc(Cl)cc2C)C(=O)N(c2ccccc2)C12CCN(OC)CC2 [P1.5]
[4]; [7]
  mortality at 400 ppm: > 80%
[2]; [6]
  mortality at 400 ppm: > 80%
[1]
  mortality at 200 ppm: ≥ 80%
Cabbage plants
  damage to cabbage plants: ≤ 10%

## CON1CCC2(CC1)C(=O)C(c1cc(C)ccc1C)C(=O)N2c1ccccc1 (centres unmarked) [P2.2]
[1]
  mortality at 200 ppm: ≥ 80%
Cabbage plants
  damage to cabbage plants: ≤ 10%

## CON1CCC2(CC1)C(=O)C(c1c(C)cc(Br)cc1C)C(=O)N2c1ccccc1 (centres unmarked) [P2.3]
[4]; [7]
  mortality at 400 ppm: > 80%
[2]; [6]
  mortality at 400 ppm: > 80%
[3]
  mortality at 400 ppm: > 80%
[1]
  mortality at 200 ppm: ≥ 80%
Cabbage plants
  damage to cabbage plants: ≤ 10%

## CON1CCC2(CC1)C(=O)C(c1c(C)cc(C)cc1C)C(=O)N2c1ccccc1 (centres unmarked) [P2.4]
[4]; [7]
  mortality at 400 ppm: > 80%
[2]; [6]
  mortality at 400 ppm: > 80%
[3]
  mortality at 400 ppm: > 80%
[1]
  mortality at 200 ppm: ≥ 80%
Cabbage plants
  damage to cabbage plants: ≤ 10%

## CON1CCC2(CC1)C(=O)C(c1c(C)cc(Cl)cc1C)C(=O)N2c1ccccc1 (centres unmarked) [P2.5, 3-(4-chloro-2,6-dimethyl-phenyl)-8-methoxy-1-phenyl-1,8-diaza-spiro[4.5]decane-2,4-dione]
[4]
  mortality at 400 ppm: > 80%
[2]
  mortality at 400 ppm: > 80%
[1]
  mortality at 200 ppm: ≥ 80%
Cabbage plants
  damage to cabbage plants: ≤ 10%
